Assay results taken from patent US12377110B2, “Fospropofol methods and compositions” (Epalex Corporation, priority 2019, dated 2025).

Key:
[1] = Study No. 15-4 (GLP): 14-day once daily oral gavage toxicity of fospropofol disodium; format: in vivo, Beagle dogs; conditions: both sexes, dog, in vivo; 14 days once daily oral gavage, Beagle dogs
Description: (§1) The purpose of Study No. 15-4 (GLP) was to determine the potential toxicity of fospropofol in Beagle dogs when administered once daily by oral gavage for 14 days. […] Because the treatment-related clinical observations (consistent with the expected transient sedative actions of fospropofol) and effects on hematology and clinical chemistry parameters were considered nonadverse, the NOAEL was determined to be 160 mg/kg/day (3200 mg/m^2/day).
(§2) As in the rat, CNS-related clinical signs were observed which were consistent with the established pharmacodynamic effects of fospropofol. […] The NOAEL was determined to be 160 mg/kg/day (3200 mg/m^2/d) in male and female Beagle dogs.

[2] = test system: Beagle dogs; experiment: as above; format: in vivo
Description: as §1, §2

For `CC(C)c1cccc(C(C)C)c1OCOP(=O)([O-])O.[Na+]` [fospropofol disodium], the NOAEL at 14 days [1] was 160 mg/kg/day, the Tolerability ([2]; 0, 50, 100, and 160 mg/kg/day for 14 consecutive days) was “well tolerated at all close levels with no adverse findings” and the Mortalities ([2]; 0, 50, 100, and 160 mg/kg/day for 14 days) was “no mortalities”. The NOAEL ([2]; 14 days once daily oral gavage, Beagle dogs) was 3200 mg/m^2/day, the “Histopathology, all tissues including GIT-related” value ([2]; up to 160 mg/kg/day) was “no treatment-related histopathological findings” and the “Body weights, cardiovascular evaluations (ECGs, QTc), ophthalmology, clinical pathology, organ weights” value ([2]; up to 160 mg/kg/day for 14 days) was “no toxicologically significant changes”.
